Test results reported in BindingDB's records for doi:10.1021/jm021079g (Academy of Sciences of The Czech Republic, 2003).

Molecular target: T1, Dimer of Gag-Pol polyprotein [501-599] (Human immunodeficiency virus 1, UniProt P03367)
T1 construct: 501-599
Assay: Protease Inhibition Assay
Conditions: pH 4.7
Method: Inhibition constants were determined by a spectrophotometric assay with the chromogenic peptide substrate.

SMILES	Ki [nM]
CC(C)(C)OC(=O)N[C@@H](Cc1ccccc1)[C@@H](O)CN[C@@H](Cc1ccccc1)C(=O)N[C@@H](CCC(N)=O)C(=O)N[C@@H](Cc1ccccc1)C(N)=O	33
CC(C)(C)OC(=O)N[C@@H](Cc1ccccc1)[C@@H](O)CN[C@@H](Cc1ccccc1)C(=O)N[C@@H](CCC(=O)O)C(=O)N[C@@H](Cc1ccccc1)C(N)=O	0.15
